Measurements from US3980646A, “3-Methylpyrazole-5-carboxylates and medicaments containing these compounds” (Wulfing; Johann A., priority 1974, dated 1976).
Several values for one entry are separate records, joined by “and”; a condition that tells them apart may be missing. Equal values may be shown once. Entries after “also recorded” stand apart in the source; their conditions may differ.

How the values were obtained:
[1] = system: free fatty acids (FFS); assay: influence on the free fatty acids (FFS) in starved (hyperlipacidaemic) animals, hunger lipolysis; format: in vivo, rats (Wistar)
Protocol: (§1) Investigations on a total of 260 Wistarrats were conducted with 7-[3-(N-methyl-N-2-hydroxyethyl)-amino-2-hydroxypropyl]-1,3-dimethylxanthine-3-methylpyrazole-5-carboxylate.
(§2) Examination of the influence of 7-[3-(N-methyl-N-2-hydroxy-
(§3) ethyl)-amino-2-hydroxypropyl]-1,3-dimethylxanthine-3-methyl-
(§4) pyrazole-5-carboxylate on the serum fatty acids (FFS) of
Male Rats, starve for 17 hours
(§5) Dose: 100 mg/kg body weight, oral by esophagus probe,
(§6) Blood removal: 1 hour after application
pyrazole-5-carboxylate on the free fatty acids (FFS) in
starved animals 1 hour after application
Comparative examinations of the influence of 7-[3-(N-methyl-
carboxylic acid on the free fatty acids (FFS) in starved
animals 1 hour after application
pyrazole-5-carboxylic acid on the free fatty acids (FFS)
in starved animals 6 hours after application

[2] = system: serum cholesterol; assay: influence on the serum cholesterol of repeated application; format: in vivo, rats male (Wistar); conditions: for serum cholesterol: individual animals, starve for 5 hours, 100 mg/kg; for serum cholesterol / serum cholesterol, mean (x10): 100 mg/kg x/day p.o.; for serum cholesterol, mean (x10): control 71.28
Protocol: Influence on the serum cholesterol of repeated application of
(§7) 100 mg/kg x/day p.o. rats male, starve for 5 hours, ether narcosis, heart
(§8) last application 1 hour before killing (cf. FIG. 3)

[3] = system: serum fatty acids (FFS); assay: influence on the serum fatty acids (FFS) of normal animals; format: in vivo, Female rats (Wistar); conditions: normal female rats, 100 mg/kg oral, 1 hour after application
Protocol: as §1, §2, §3, §4
Female rats, starve for 5 hours
as §5, §6

[4] = system: serum triglycerides; assay: influence on the serum triglycerides of repeated application; format: in vivo, rats male (Wistar); conditions: for serum triglycerides: individual animals, starve for 5 hours, 100 mg/kg; for serum triglycerides / serum triglycerides, mean (x10): 100 mg/kg x/day p.o.; for serum triglycerides, mean (x10): control 133.6
Protocol: Influence on the serum triglycerides of repeated application of
as §7, §8

[5] = 100 mg/kg over 4 days, result in words

CN(CCO)CC(O)Cn1cnc2c1c(=O)n(C)c(=O)n2C.Cc1cc(C(=O)O)[nH]n1 (stereo not drawn) [7-[3-(N-methyl-N-2-hydroxyethyl)-amino-2-hydroxypropyl]-1,3-dimethylxanthine-3-methylpyrazole-5-carboxylate]
FFS ([1]; Table 4 dose-effect, starved animals, 1 hour, 20 mg/kg, n 5, control 0.90): 0.56 μval/ml
FFS ([1]; Table 4 dose-effect, starved animals, 1 hour, 30 mg/kg, n 4, control 1.02): 0.54 μval/ml
FFS ([1]; Table 4 dose-effect, starved animals, 1 hour, 40 mg/kg, n 5, control 1.02): 0.48 μval/ml
FFS ([1]; Table 4 dose-effect, starved animals, 1 hour, 50 mg/kg, n 10, control 1.08, **p<0.001): 0.40 μval/ml
FFS ([1]; Table 4 dose-effect, starved animals, 1 hour, 100 mg/kg, n 15, control 0.91, *p<0.001): 0.46 μval/ml
FFS ([1]; Table 5, individual animals, starved, 1 hour after application, 50 mg/kg): 0.39 μval/ml and 0.44 μval/ml and 0.46 μval/ml and 0.40 μval/ml and 0.35 μval/ml and 0.45 μval/ml and 0.37 μval/ml and 0.32 μval/ml and 0.41 μval/ml
FFS, mean ([1]; Table 5, mean, n=10, starved, 1 hour after application, 50 mg/kg, control 1.08, p<0.001): 0.40 μval/ml
FFS ([1]; Table 6, individual animals, starved, 6 hours after application, 50 mg/kg BW p.o., 50 mg/kg): 0.39 μval/ml and 0.35 μval/ml and 0.43 μval/ml and 0.58 μval/ml and 0.54 μval/ml and 0.63 μval/ml and 0.77 μval/ml and 0.52 μval/ml and 0.51 μval/ml and 0.96 μval/ml and 0.59 μval/ml and 0.78 μval/ml and 0.53 μval/ml and 0.44 μval/ml and 0.64 μval/ml and 0.85 μval/ml and 0.32 μval/ml
FFS, mean (x) ([1]; Table 6, mean, n=21, starved, 6 hours after application, 50 mg/kg BW p.o., control 0.86, p<0.001): 0.57 μval/ml
lipolysis-inhibiting effect compared with free 3-methylpyrazole-5-carboxylic acid ([1]; equimolar dosage, especially 6 hours after application): more pronounced than that of the free 3-methylpyrazole-5-carboxylic acid
effect on the serum cholesterol on repeated application [2, 5]: uniform and, in some cases, even increased effect; also recorded: still significantly reduced
serum cholesterol ([2]; 1st day): 71.70 mg % and 49.06 mg % and 51.89 mg % and 67.92 mg % and 68.87 mg % and 52.83 mg % and 50.94 mg %
serum cholesterol, mean (x10) ([2]; 1st day): 58.68 mg %
serum cholesterol ([2]; 2nd day): 37.4 mg % and 54.2 mg % and 55.2 mg % and 69.9 mg % and 65.0 mg % and 69.1 mg % and 39.4 mg % and 47.3 mg % and 49.3 mg % and 51.2 mg %
serum cholesterol, mean (x10) ([2]; 2nd day): 53.8 mg %
serum cholesterol ([2]; 3rd day): 52.36 mg % and 71.24 mg % and 67.81 mg % and 50.64 mg % and 57.51 mg % and 64.38 mg % and 62.66 mg % and 68.67 mg % and 60.94 mg %
serum cholesterol, mean (x10) ([2]; 3rd day): 62.75 mg %
serum cholesterol ([2]; 4th day): 42.98 mg % and 37.19 mg % and 52.07 mg % and 64.46 mg % and 80.99 mg % and 47.11 mg % and 65.29 mg % and 58.68 mg % and 50.41 mg % and 43.80 mg %
serum cholesterol, mean (x10) ([2]; 4th day): 54.30 mg %
FFS ([3]; individual animals, starve for 5 hours, 100 mg/kg): 0.51 μval/ml and 0.58 μval/ml and 0.52 μval/ml and 0.56 μval/ml and 0.57 μval/ml and 0.48 μval/ml and 0.54 μval/ml
FFS, mean (φ) ([3]; mean of test series, control φ 0.60): 0.53 μval/ml
effect on the serum triglycerides on repeated application [4, 5]: uniform and, in some cases, even increased effect; also recorded: still significantly reduced
serum triglycerides ([4]; 1st day): 85.9 mg% and 57.3 mg% and 118.6 mg% and 104.5 mg% and 65.9 mg% and 88.8 mg%
serum triglycerides, mean (x10) ([4]; 1st day): 82.6 mg%
serum triglycerides ([4]; 2nd day): 38.7 mg% and 61.6 mg% and 54.4 mg% and 63.0 mg% and 95.9 mg% and 87.3 mg% and 127.4 mg% and 74.4 mg% and 57.2 mg% and 88.7 mg%
serum triglycerides, mean (x10) ([4]; 2nd day): 74.8 mg%
serum triglycerides ([4]; 3rd day): 60.1 mg% and 63.0 mg% and 90.2 mg% and 108.8 mg% and 50.1 mg% and 97.4 mg% and 80.2 mg% and 105.9 mg% and 58.7 mg%
serum triglycerides, mean (x10) ([4]; 3rd day): 77.4 mg%
serum triglycerides ([4]; 4th day): 30.1 mg% and 73.0 mg% and 67.0 mg% and 64.4 mg% and 60.1 mg% and 44.4 mg% and 58.7 mg% and 101.7 mg% and 67.3 mg%
serum triglycerides, mean (x10) ([4]; 4th day): 61.1 mg%
